#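 1) Cells in 96-well plates. 2) Compound, 48 h, 5 concentrations. 3) Linear interpolation between surrounding doses. 4) Unreached endpoint = highest concentration. TGI: concentration producing complete growth inhibition.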
# Tests used:
# Test in all cases: NCI-60 cell line screen, 48 h
# SN12C renal = system: SN12C renal
# HT29 colon = system: HT29 colon
# K-562 leukemia = system: K-562 leukemia
# OVCAR-5 ovarian = system: OVCAR-5 ovarian
# SNB-19 CNS = system: SNB-19 CNS
# HL-60(TB) leukemia = system: HL-60(TB) leukemia
# MDA-MB-435 = system: MDA-MB-435
# EKVX NSCLC = system: EKVX NSCLC
# RPMI-8226 leukemia = system: RPMI-8226 leukemia
# UACC-62 melanoma = system: UACC-62 melanoma
# SK-MEL-5 melanoma = system: SK-MEL-5 melanoma
# IGROV1 ovarian = system: IGROV1 ovarian
# SF-539 CNS = system: SF-539 CNS
# NCI-H226 lung = system: NCI-H226 lung
# HOP-92 NSCLC = system: HOP-92 NSCLC
# MCF7 breast = system: MCF7 breast
# M14 melanoma = system: M14 melanoma
# OVCAR-8 ovarian = system: OVCAR-8 ovarian
# A498 renal = system: A498 renal
SMILES,TGI (SN12C renal) [µM],TGI (HT29 colon) [µM],TGI (K-562 leukemia) [µM],TGI (OVCAR-5 ovarian) [µM],TGI (SNB-19 CNS) [µM],TGI (HL-60(TB) leukemia) [µM],TGI (MDA-MB-435) [µM],TGI (EKVX NSCLC) [µM],TGI (RPMI-8226 leukemia) [µM],TGI (UACC-62 melanoma) [µM],TGI (SK-MEL-5 melanoma) [µM],TGI (IGROV1 ovarian) [µM],TGI (SF-539 CNS) [µM],TGI (NCI-H226 lung) [µM],TGI (HOP-92 NSCLC) [µM],TGI (MCF7 breast) [µM],TGI (M14 melanoma) [µM],TGI (OVCAR-8 ovarian) [µM],TGI (A498 renal) [µM]
Fc1ccc(C(OCCN2CCN(CCCCl)CC2)c2ccc(F)cc2)cc1,69.4,40,60.7,63.9,> 100,25.6,32.1,> 100,49.5,40.7,32.4,86.4,34.6,40.9,49,41.1,39.5,91,46.4
C[C@@]1(O)C[C@@H](N2C(=O)O[C@@H](c3ccccc3)[C@H]2c2ccccc2)[C@@H]1COCc1ccccc1,38.5,50.6,> 100,78.2,> 100,23.5,> 100,70.3,68.8,31.5,27.2,> 100,38.4,42.8,89,> 100,30,54,52.9
N=C(N)C1CN(CCCCCCCCCCN2CC(C(=N)N)C(=O)NC2=O)C(=O)NC1=O (stereo not given),> 10,> 10,> 10,> 10,> 10,> 10,> 10,> 10,> 10,> 10,> 10,> 10,> 10,> 10,> 10,> 10,> 10,> 10,> 10
CC1(C)CC(C2=NCCO2)CC(C)(C)N1,> 100,> 100,> 100,> 100,> 100,> 100,> 100,> 100,> 100,> 100,> 100,> 100,> 100,> 100,> 100,61.1,> 100,> 100,> 100
C[C@]12CC[C@@H]3c4ccc(O)cc4CC[C@H]3[C@@H]1CC[C@@H]2OP(=O)(O)O,> 100,> 100,> 100,> 100,> 100,> 100,> 100,> 100,> 100,> 100,> 100,> 100,> 100,> 100,> 100,> 100,> 100,> 100,> 100
COc1ccc(/C=C2\NC(=S)N(/C=C3\C(=O)Oc4ccccc4C3=O)C2=O)cc1OC,> 100,> 100,> 100,> 100,> 100,> 100,> 100,> 100,> 100,> 100,> 100,> 100,> 100,> 100,> 100,> 100,> 100,> 100,> 100
Cn1c(=O)c2c(nc3n(CCCCl)c(=O)ccn23)n(C)c1=O,> 100,> 100,> 100,> 100,> 100,> 100,> 100,> 100,> 100,> 100,> 100,> 100,> 100,> 100,> 100,> 100,> 100,> 100,> 100
CC(CC[C@@H](O)C(C)(C)O)C1[C@@H](O)CC2(C)C3CC(O)C4C(C)(C)[C@@H](OC5OC(CO)C(O)C(O)C5O)CC[C@@]45C[C@@]35CC[C@]12C (stereo not given in full),> 10,> 10,> 10,> 10,> 10,> 10,> 10,> 10,> 10,> 10,> 10,> 10,> 10,> 10,> 10,> 10,> 10,> 10,> 10
COc1ccc(CCCCl)c(C2=NCCc3cc(OC)c(OC)cc32)c1,> 100,> 100,> 100,> 100,> 100,> 100,> 100,> 100,28.5,> 100,59.4,> 100,> 100,> 100,> 100,> 100,> 100,> 100,> 100
COC(=O)C1=C(C)NC(C)=C(C(=O)OC)C1c1ccccc1NO,> 100,> 100,> 100,> 100,> 100,> 100,> 100,> 100,> 100,> 100,> 100,> 100,> 100,> 100,> 100,> 100,> 100,> 100,> 100
CC1(C)C2C=C(CCN3CCOCC3)CC1C2 (stereo not given),> 100,> 100,> 100,> 100,> 100,> 100,> 100,> 100,> 100,> 100,> 100,> 100,> 100,> 100,> 100,> 100,> 100,> 100,> 100
Cc1c(C)c(C)c(-n2c(=O)n(C)c(=O)n2-n2c(=O)n(C)c(=O)n2-c2c(C)c(C)c(C)c(C)c2C)c(C)c1C,> 100,> 100,> 100,> 100,> 100,68.7,> 100,> 100,> 100,> 100,> 100,> 100,> 100,> 100,> 100,> 100,> 100,> 100,> 100
O=C1/C(=c2\s/c(=C\c3ccccc3)c(=O)n2-c2ccccc2)SC(=S)N1c1ccccc1,> 100,> 100,> 100,> 100,> 100,> 100,> 100,> 100,> 100,> 100,> 100,87.2,55.6,89.4,> 100,> 100,> 100,> 100,> 100
O=C1C(N2CCN(c3ccccn3)CC2)=C(Cl)C(=O)c2ncccc21,3.22,> 6.16,> 10,> 10,> 10,0.906,> 5.27,> 10,1.87,> 6.76,3.27,> 10,> 10,> 10,2.94,3.64,3.82,> 6.1,> 10
CC[C@H](CCCC[C@H]1CC[C@@H]2CC(=O)C[C@H]12)OC,> 100,> 100,55.2,> 100,> 100,67.8,> 100,> 100,> 100,> 100,93,> 100,> 100,> 100,> 100,> 100,> 100,> 100,> 100
c1ccc(-c2nnc(-c3ccccn3)c3c2C[C@@H]2C[C@@H]4Cc5c(-c6ccccn6)nnc(-c6ccccn6)c5[C@@H]4[C@H]32)nc1,> 100,> 100,> 100,> 100,> 100,58.8,> 100,36.8,> 100,> 100,> 100,> 100,> 100,> 100,> 100,> 100,43.6,> 100,6.35
CC12O[C@]3([C@H](C(=O)N4CCOC43C)[C@H]1Cl)[C@H]1O[C@H]12 (stereo not given in full),> 100,> 100,> 100,> 100,> 100,> 100,> 100,> 100,> 100,> 100,> 100,> 100,> 100,> 100,> 100,> 100,> 100,> 100,> 100
CCc1cc2c(c3c1CCC3=O)CC1(Cc3ccc(C)cc3C1)C2 (stereo not given),> 100,46.9,> 100,> 100,–,41,> 100,> 100,94.8,> 100,76.8,> 100,> 100,99.8,62.8,> 100,> 100,> 100,> 100
CC(=O)C1(Cc2cccc3ccccc23)S(=O)(=O)OCCOS1(=O)=O,25,37.4,> 100,32.5,49.2,41.4,27.8,32.6,47.2,31.9,24.6,15.1,37.8,35.3,48.4,39.7,56.7,55.3,35.7
C/C(=C(/C)c1ccc(O)cc1)c1ccc(O)cc1,> 100,> 100,> 100,> 100,> 100,81.4,> 100,88.2,71.6,83.3,50,> 100,> 100,> 100,91.6,> 100,> 100,> 100,> 100
O=[N+]([O-])c1c(F)c(F)c2c(c1F)Nc1ccccc1S2,12.8,3.63,> 100,26.5,19.2,16.1,14.4,16,27.2,20.4,23.8,8.64,39.6,35.2,31,17.8,10.4,3.89,30.4
CC[C@@]1(O)C(=O)OCc2c1cc1n(c2=O)Cc2c-1nc1ccccc1c2/C=N\NC(=O)C(N)CO (stereo not given in full),25.3,> 90.4,> 100,> 100,> 100,> 21,> 31.6,> 100,> 73.2,0.419,2.55,> 100,0.763,23.2,50.5,21.3,7.51,39.6,12.2
O=C(O)c1n[nH][nH]c1=S,> 100,> 100,> 100,> 100,> 100,> 100,> 100,> 100,> 100,> 100,> 100,> 100,> 100,> 100,> 100,> 100,> 100,> 100,> 100
COc1ccc(OC)c(-c2nc3n(c2/C=C2/C(=O)Nc4ccccc42)CCS3)c1,> 100,> 100,> 100,> 100,> 100,> 100,40,> 100,> 100,> 100,> 100,> 100,> 100,> 100,> 100,> 100,> 100,> 100,> 100
